From publication PMC11995724, “Antibiotic target discovery by integrated phenotypic and activity-based profiling of electrophilic fragments” (Cell chemical biology, 2025)
Where a name gives a salt, the structure may show the parent alone.

Experiment: in vitro
Conditions: human, hek293t cells

Structure (SMILES) | viability at 48 h, 25 µM [%]
CCc1ccc(C=C(C#N)C(=O)Nc2cc(C)c(Cl)cc2OC)cc1 [8-G11, N-(4-chloro-2-methoxy-5-methylphenyl)-2-cyano-3-(4-ethylphenyl)prop-2-enamide] | 92
C=CC(=O)N1CCC(C(=O)N[C@@H](C)c2ccc(Cl)s2)CC1 [3-E22, N-[(1S)-1-(5-chlorothiophen-2-yl)ethyl]-1-(prop-2-enoyl)piperidine-4-carboxamide] | 65.7
O=C(CCl)NCc1ccccc1CN1CCOCC1 [5-L06, 2-chloro-N-({2-[(morpholin-4-yl)methyl]phenyl}methyl)acetamide hydrochloride] | 1.46
C=CC(=O)N(C)Cc1noc(C2CC2)n1 [2-N17, N-[(5-cyclopropyl-1,2,4-oxadiazol-3-yl)methyl]-N-methylprop-2-enamide] | 60.3
CC(Cl)C(=O)NCCc1nnc2n1CCCCC2 (stereo not shown) [7-D09, 2-chloro-N-(2-{5H,6H,7H,8H,9H-[1,2,4]triazolo[4,3-a]azepin-3-yl}ethyl)propanamide] | 101
Cc1nn(CC(C)C)c(Cl)c1C1CCCN1C(=O)CCl (stereo not shown) [5-L13, 2-chloro-1-{2-[5-chloro-3-methyl-1-(2-methylpropyl)-1H-pyrazol-4-yl]pyrrolidin-1-yl}ethan-1-one] | 0.964
COc1cc(Cl)c(C)cc1NC(=O)C(C)Cl (stereo not shown) [6-C15, 2-chloro-N-(4-chloro-2-methoxy-5-methylphenyl)propanamide] | 102
C=CC(=O)N1CCOCC1c1ncnn1Cc1ccccc1 (stereo not shown) [1-L12, 1-[3-(1-benzyl-1H-1,2,4-triazol-5-yl)morpholin-4-yl]prop-2-en-1-one] | 63.7
Cc1ccc(NC(=O)C(C#N)=Cc2ccccc2OC(F)F)cc1 [9-D05, 2-cyano-3-[2-(difluoromethoxy)phenyl]-N-(4-methylphenyl)prop-2-enamide] | 96.9
Cc1ccccc1N1C(=O)CSC1=C(C#N)C(=O)N1CCCCC1 [8-B12, 2-[3-(2-methylphenyl)-4-oxo-1,3-thiazolidin-2-ylidene]-3-oxo-3-(piperidin-1-yl)propanenitrile] | 113
C=CC(=O)N(Cc1cccc2ccoc12)C1CCSCC1 [1-D04, N-[(1-benzofuran-7-yl)methyl]-N-(thian-4-yl)prop-2-enamide] | 70.4
CC(=O)NCc1ccc(C2CCCN2C(=O)CCl)o1 (stereo not shown) [5-P13, N-({5-[1-(2-chloroacetyl)pyrrolidin-2-yl]furan-2-yl}methyl)acetamide] | 0.652
CSc1nsc(NC(=O)CCl)n1 [4-C13, 2-chloro-N-[3-(methylsulfanyl)-1,2,4-thiadiazol-5-yl]acetamide] | 63.6
Cc1cc(C(C)(C)C)cc(C)c1NC(=O)CCl [4-L19, N-(4-tert-butyl-2,6-dimethylphenyl)-2-chloroacetamide] | 1.04
C=CC(=O)NCC(O)c1ncccc1OC (stereo not shown) [2-J11, N-[2-hydroxy-2-(3-methoxypyridin-2-yl)ethyl]prop-2-enamide] | 80.8
Cn1c(N)c(C(=O)CCl)c(=O)n(C)c1=O [10-E14, 6-amino-5-(2-chloroacetyl)-1,3-dimethyl-1,2,3,4-tetrahydropyrimidine-2,4-dione] | 89.9
COc1ccc(C(=O)CCl)c2c1C(=O)CO2 [10-N05, 7-(2-chloroacetyl)-4-methoxy-2,3-dihydro-1-benzofuran-3-one] | 92.2
CC(Cl)C(=O)N1CCCN(C(=O)c2cc(Cl)cn2C)CC1 (stereo not shown) [7-N07, 2-chloro-1-[4-(4-chloro-1-methyl-1H-pyrrole-2-carbonyl)-1,4-diazepan-1-yl]propan-1-one] | 94.5
CC1=C(C#N)C(=O)N(C2CCS(=O)(=O)C2)C(=O)C1=Cc1ccco1 (stereo not shown) [9-O13, 1-(1,1-dioxo-1lambda6-thiolan-3-yl)-5-[(furan-2-yl)methylidene]-4-methyl-2,6-dioxo-1,2,5,6-tetrahydropyridine-3-carbonitrile] | 99

Structure (SMILES) | viability at 48 h, 25 µM [%]
COc1cccc([C@H]2C[C@H](N(C)C(=O)C(C)Cl)C2)c1 (stereo partly shown) [6-B17, 2-chloro-N-methyl-N-[(1r,3r)-3-(3-methoxyphenyl)cyclobutyl]propanamide] | 79.7
C=CC(=O)Nc1ccc(C(C)Sc2ccccc2)cc1 (stereo not shown) [1-C21, N-{4-[1-(phenylsulfanyl)ethyl]phenyl}prop-2-enamide] | 69.7
Cc1ccc(NC(=O)C2CSCN2C(=O)CCl)c(C)c1 (stereo not shown) [5-M07, 3-(2-chloroacetyl)-N-(2,4-dimethylphenyl)-1,3-thiazolidine-4-carboxamide] | 0.0812
C=CC(=O)N(C[C@H]1CCCO1)C1CCC(CC)CC1 (stereo partly drawn) [1-D03, N-(4-ethylcyclohexyl)-N-{[(2R)-oxolan-2-yl]methyl}prop-2-enamide] | 94.6
O=C(CCl)C1CC12CCOCC2 (stereo not shown) [10-M15, 2-chloro-1-{6-oxaspiro[2.5]octan-1-yl}ethan-1-one] | 108
COc1ccc(NC(=O)N2CCSSCC2)cc1 [10-H21, N-(4-methoxyphenyl)-1,2,5-dithiazepane-5-carboxamide] | 103
O=C1C=CC(=O)N1CCc1ccccc1 [10-E20, 1-(2-phenylethyl)-2,5-dihydro-1H-pyrrole-2,5-dione] | 4.04
C=CC(=O)NC1CCN(S(N)(=O)=O)CC1 [1-K18, N-(1-sulfamoylpiperidin-4-yl)prop-2-enamide] | 93.7
N#CC(=Cc1ccc(-c2ccc(F)cc2)o1)C(=O)NC1CCCCC1 [9-H17, 2-cyano-N-cyclohexyl-3-[5-(4-fluorophenyl)furan-2-yl]prop-2-enamide] | 77.1
Cc1coc(C)c1C(=O)CCl [10-M11, 2-chloro-1-(2,4-dimethylfuran-3-yl)ethan-1-one] | 72.9
Cc1cc(C)c(-c2cc(NC(=O)CCl)n(-c3ccccc3)n2)cc1C [6-A10, 2-chloro-N-[1-phenyl-3-(2,4,5-trimethylphenyl)-1H-pyrazol-5-yl]acetamide] | 0.264
N#CC(=Cc1c(C2CC2)nc2sccn12)C(=O)NC1CCCCC1 [9-H18, 2-cyano-N-cyclohexyl-3-{6-cyclopropylimidazo[2,1-b][1,3]thiazol-5-yl}prop-2-enamide] | 86.8
C=CC(=O)NC(C(N)=O)c1ccccc1F (stereo not shown) [2-H19, N-[carbamoyl(2-fluorophenyl)methyl]prop-2-enamide] | 51.9
CC(Cl)C(=O)N1CCCC(NS(=O)(=O)c2cccc(F)c2)C1 (stereo not shown) [7-C13, N-[1-(2-chloropropanoyl)piperidin-3-yl]-3-fluorobenzene-1-sulfonamide] | 79.3
C=CC(=O)N(C)CC(=O)Nc1ccc(N2CCOCC2=O)c(C)c1 [3-J07, N-methyl-N-({[3-methyl-4-(3-oxomorpholin-4-yl)phenyl]carbamoyl}methyl)prop-2-enamide] | 51.4
C=CC(=O)Nc1ccc(CN2CCC(C)CC2)cc1 [1-D21, N-{4-[(4-methylpiperidin-1-yl)methyl]phenyl}prop-2-enamide] | 157
CC(C#N)CSc1ccccc1NC(=O)CCl (stereo not shown) [6-K16, 2-chloro-N-{2-[(2-cyano-2-methylethyl)sulfanyl]phenyl}acetamide] | 1.3
CC(Cl)C(=O)N1CC(S(=O)(=O)c2ccccc2F)C1 (stereo not shown) [7-M15, 2-chloro-1-[3-(2-fluorobenzenesulfonyl)azetidin-1-yl]propan-1-one] | 96.3
